Columns and labels:
[1] = test system: Puccinia recondita f. sp. tritici; assay: Puccinia recondita f. sp. tritici / wheat / leaf disc curative (brown rust); format: in vivo; details: foliar, 24 h, wheat leaf segments cv. Kanzler, curative (applied 1 day after inoculation), compared to untreated control, read-out: control of Puccinia recondita f. sp. tritic
Protocol: Leaf disks or leaf segments of various plant species are cut from plants grown in a greenhouse. The cut leaf disks or segments are placed in multiwell plates (24-well format) onto water agar. The leaf disks are sprayed with a test solution before (preventative) or after (curative) inoculation. Compounds to be tested are prepared as DMSO solutions (max. 10 mg/ml) which are diluted to the appropriate concentration with 0.025% Tween20 just before spraying. The inoculated leaf disks or segments are incubated under defined conditions (temperature, relative humidity, light, etc.) according to the respective test system. A single evaluation of disease level is carried out 3 to 14 days after inoculation, depending on the pathosystem. Percent disease control relative to the untreated check leaf disks or segments is then calculated. Wheat leaf segments cv. Kanzler are placed on agar in multiwell plates (24-well format). The leaf segments are inoculated with a spore suspension of the fungus. Plates are stored in darkness at 19° C., and 75% rh. The formulated test compound diluted in water is applied 1 day after inoculation. The leaf segments are incubated at 19° C., and 75% rh under a light regime of 12 h light/12 h darkness in a climate cabinet and the activity of a compound is assessed as percent disease control compared to untreated when an appropriate level of disease damage appears in untreated check leaf segments (6-8 days after application).

[2] = test system: Phakopsora pachyrhizi; assay: Phakopsora pachyrhizi / soybean / leaf disc preventative (Asian soybean rust); format: in vivo; details: foliar, soybean leaf disks, compared to untreated control
Protocol: Leaf disks or leaf segments of various plant species are cut from plants grown in a greenhouse. The cut leaf disks or segments are placed in multiwell plates (24-well format) onto water agar. The leaf disks are sprayed with a test solution before (preventative) or after (curative) inoculation. Compounds to be tested are prepared as DMSO solutions (max. 10 mg/ml) which are diluted to the appropriate concentration with 0.025% Tween20 just before spraying. The inoculated leaf disks or segments are incubated under defined conditions (temperature, relative humidity, light, etc.) according to the respective test system. A single evaluation of disease level is carried out 3 to 14 days after inoculation, depending on the pathosystem. Percent disease control relative to the untreated check leaf disks or segments is then calculated. Soybean leaf disks are placed on water agar in multiwell plates (24-well format) and sprayed with the formulated test compound diluted in water. One day after application leaf discs are inoculated by spraying a spore suspension on the lower leaf surface. After an incubation period in a climate cabinet of 24-36 hours in darkness at 20° C., and 75% rh leaf disc are kept at 20° C. with 12 h light/day and 75% rh. The activity of a compound is assessed as percent disease control compared to untreated when an appropriate level of disease damage appears in untreated check leaf disks (12-14 days after application).

[3] = test system: Glomerella lagenarium (Colletotrichum lagenarium); assay: Glomerella lagenarium (Colletotrichum lagenarium) liquid culture / cucumber / preventative (anthracnose); format: cell-based; details: Colletotrichum orbiculare, liquid culture (PDB), growth inhibition measured photometrically 3-4 days after application, compared to untreated control
Protocol: […] fragments or conidia suspensions of a fungus prepared either freshly from liquid cultures of the fungus or from cryogenic storage, are directly mixed into nutrient broth. DMSO solutions of the test compound (max. 10 mg/ml) are diluted with 0.025% Tween20 by a factor of 50 and 10 μl of this solution is pipetted into a microtiter plate (96-well format). The nutrient broth containing the fungal spores/mycelia fragments is then added to give an end concentration of the tested compound. The test plates are incubated in the dark at 24° C., and 96% relative humidity. The inhibition of fungal growth is determined photometrically after 2 to 7 days, depending on the pathosystem, and percent antifungal activity relative to the untreated check is calculated. Conidia of the fungus from cryogenic storage are directly mixed into nutrient broth (PDB potato dextrose broth). Alter placing a (DMSO) solution of test compound into a microtiter plate (96-well format), the nutrient broth containing the fungal spores is added. The test plates are incubated at 24° C., and the inhibition of growth is measured photometrically 3-4 days after application.

[4] = test system: Puccinia recondita f. sp. tritici; assay: Puccinia recondita f. sp. tritici / wheat / leaf disc preventative (brown rust); format: in vivo; details: foliar, wheat leaf segments cv. Kanzler, preventative (inoculated 1 day after application), compared to untreated control
Protocol: Leaf disks or leaf segments of various plant species are cut from plants grown in a greenhouse. The cut leaf disks or segments are placed in multiwell plates (24-well format) onto water agar. The leaf disks are sprayed with a test solution before (preventative) or after (curative) inoculation. Compounds to be tested are prepared as DMSO solutions (max. 10 mg/ml) which are diluted to the appropriate concentration with 0.025% Tween20 just before spraying. The inoculated leaf disks or segments are incubated under defined conditions (temperature, relative humidity, light, etc.) according to the respective test system. A single evaluation of disease level is carried out 3 to 14 days after inoculation, depending on the pathosystem. Percent disease control relative to the untreated check leaf disks or segments is then calculated. Wheat leaf segments cv. Kanzler are placed on agar in multiwell plates (24-well format) and sprayed with the formulated test compound diluted in water. The leaf disks are inoculated with a spore suspension of the fungus 1 day after application. The inoculated leaf segments are incubated at 19° C. and 75% rh under a light regime of 12 h light/12 h darkness in a climate cabinet and the activity of a compound is assessed as percent disease control compared to untreated when an appropriate level of disease damage appears in untreated check leaf segments (7-9 days after application).

**Q.** With `CN(C)N(CC(=O)NC(C)(C)C)C(=O)c1ccc(-c2noc(C(F)(F)F)n2)cc1` [Compound 1.1, N-tert-butyl-2-[dimethylamino-[4-[5-(trifluoromethyl)-1,2,4-oxadiazol-3-yl]benzoyl]amino]-acetamide] as the compound, how does the pest or weed control at 200 ppm [1] read?
**A.** Its pest or weed control at 200 ppm is at least 80%.

**Q.** And the pest or weed control at 200 ppm [2]?
**A.** The pest or weed control at 200 ppm was at least 80%.

**Q.** And the inhibition of growth at 20 ppm [3]?
**A.** Its inhibition of growth at 20 ppm is at least 80%.

**Q.** And the pest or weed control at 200 ppm [4]?
**A.** The pest or weed control at 200 ppm was at least 80%.

**Q.** Which results are given for `CC(C)(C)NC(=O)CN(C(=O)c1ccc(-c2noc(C(F)(F)F)n2)cc1)N1CCOC1=O` [Compound 1.2, N-[2-(tert-butylamino)-2-oxo-ethyl]-N-(2-oxooxazolidin-3-yl)-4-[5-(trifluoromethyl)-1,2,4-oxadiazol-3-yl]benzamide]?
**A.** pest or weed control at 200 ppm [2]: ≥ 80%; pest or weed control at 200 ppm [4]: ≥ 80%

**Q.** For `CC(=O)NNC(=O)c1ccc(-c2noc(C(F)(F)F)n2)cc1F` [Compound 1.4, N′-acetyl-2-fluoro-4-[5-(trifluoromethyl)-1,2,4-oxadiazol-3-yl]benzohydrazide], which pest or weed control at 200 ppm [1] is on record?
**A.** The pest or weed control at 200 ppm was at least 80%.

**Q.** And the pest or weed control at 200 ppm [2]?
**A.** Its pest or weed control at 200 ppm is at least 80%.

**Q.** And the pest or weed control at 200 ppm [4]?
**A.** Its pest or weed control at 200 ppm is at least 80%.

**Q.** With `O=C(NN1CCCCC1=O)c1ccc(-c2noc(C(F)(F)F)n2)cc1` [Compound 1.7, N-(2-oxo-1-piperidyl)-4-[5-(trifluoromethyl)-1,2,4-oxadiazol-3-yl]benzamide] as the compound, how does the pest or weed control at 200 ppm [2] read?
**A.** Its pest or weed control at 200 ppm is at least 80%.

**Q.** And the melting point?
**A.** The melting point was 192 to 216 °C.

**Q.** And the pest or weed control at 200 ppm [4]?
**A.** The pest or weed control at 200 ppm was at least 80%.

**Q.** Which pest or weed control at 200 ppm [2] does the source give for `CN1CCN(NC(=O)c2ccc(-c3noc(C(F)(F)F)n3)cc2)C1=O` [Compound 1.8, N-(3-methyl-2-oxo-imidazolidin-1-yl)-4-[5-(trifluoromethyl)-1,2,4-oxadiazol-3-yl]benzamide] here?
**A.** The pest or weed control at 200 ppm was at least 80%.

**Q.** And the melting point?
**A.** The melting point was 238 to 245 °C.

**Q.** What about the pest or weed control at 200 ppm [4] of the same compound?
**A.** Its pest or weed control at 200 ppm is at least 80%.

**Q.** With `O=C1CN(NC(=O)c2ccc(-c3noc(C(F)(F)F)n3)cc2)C(=O)N1` [Compound 1.9] as the compound, how does the pest or weed control at 200 ppm [1] read?
**A.** Its pest or weed control at 200 ppm is at least 80%.

**Q.** What about the pest or weed control at 200 ppm [2] of the same compound?
**A.** Its pest or weed control at 200 ppm is at least 80%.

**Q.** And the melting point?
**A.** The melting point was 192 to 196 °C.

**Q.** For `O=C(Cc1ccc(-c2noc(C(F)(F)F)n2)cc1)NN1CCCCC1=O` [Compound 1.14, N-(2-oxo-1-piperidyl)-2-[4-[5-(trifluoromethyl)-1,2,4-oxadiazol-3-yl]phenyl]acetamide], which pest or weed control at 200 ppm [1] is on record?
**A.** The pest or weed control at 200 ppm was at least 80%.

**Q.** And the pest or weed control at 200 ppm [2]?
**A.** Its pest or weed control at 200 ppm is at least 80%.

**Q.** And the melting point?
**A.** The melting point was 165 to 170 °C.

**Q.** And the pest or weed control at 200 ppm [4]?
**A.** The pest or weed control at 200 ppm was at least 80%.

**Q.** With `O=C(NN1CCOCC1)c1ccc(-c2noc(C(F)(F)F)n2)c(F)c1` [Compound 1.16, 3-fluoro-N-morpholino-4-[5-(trifluoromethyl)-1,2,4-oxadiazol-3-yl]benzamide] as the compound, how does the pest or weed control at 200 ppm [2] read?
**A.** Its pest or weed control at 200 ppm is at least 80%.

**Q.** What about the melting point of the same compound?
**A.** The melting point was 140 to 160 °C.

**Q.** And the pest or weed control at 200 ppm [4]?
**A.** Its pest or weed control at 200 ppm is at least 80%.

**Q.** With `O=C(Cc1ccc(-c2noc(C(F)(F)F)n2)cc1)NN1CCOCC1` [Compound 1.17, N-morpholino-2-[4-[5-(trifluoromethyl)-1,2,4-oxadiazol-3-yl]phenyl]acetamide] as the compound, how does the pest or weed control at 200 ppm [1] read?
**A.** Its pest or weed control at 200 ppm is at least 80%.

**Q.** What about the pest or weed control at 200 ppm [2] of the same compound?
**A.** The pest or weed control at 200 ppm was at least 80%.

**Q.** What about the melting point of the same compound?
**A.** The melting point was 182 to 188 °C.

**Q.** What about the pest or weed control at 200 ppm [4] of the same compound?
**A.** The pest or weed control at 200 ppm was at least 80%.

**Q.** With `CC(C)OCC1CN(NC(=O)c2ccc(-c3noc(C(F)(F)F)n3)cc2)C(=O)O1` (stereo not drawn) [Compound 1.20, N-[5-(isopropoxymethyl)-2-oxo-oxazolidin-3-yl]-4-[5-(trifluoromethyl)-1,2,4-oxadiazol-3-yl]benzamide] as the compound, how does the pest or weed control at 200 ppm [2] read?
**A.** The pest or weed control at 200 ppm was at least 80%.

**Q.** What about the inhibition of growth at 20 ppm [3] of the same compound?
**A.** Its inhibition of growth at 20 ppm is at least 80%.

**Q.** And the melting point?
**A.** Its melting point is 192 to 197 °C.

**Q.** For `O=C(NNCCOC(F)F)c1ccc(-c2noc(C(F)(F)F)n2)cc1` [Compound 1.22, N′-[2-(difluoromethoxy)ethyl]-4-[5-(trifluoromethyl)-1,2,4-oxadiazol-3-yl]benzohydrazide], which pest or weed control at 200 ppm [1] is on record?
**A.** Its pest or weed control at 200 ppm is at least 80%.

**Q.** And the pest or weed control at 200 ppm [2]?
**A.** Its pest or weed control at 200 ppm is at least 80%.

**Q.** What about the inhibition of growth at 20 ppm [3] of the same compound?
**A.** Its inhibition of growth at 20 ppm is at least 80%.

**Q.** What about the pest or weed control at 200 ppm [4] of the same compound?
**A.** Its pest or weed control at 200 ppm is at least 80%.

From patent US20190292174A1, “MICROBIOCIDAL OXADIAZOLE DERIVATIVES” (SYNGENTA PARTICIPATIONS AG, priority 2016, published 2019)
